Test results: article PMC5429769, “Rational development of Stafib-2: a selective, nanomolar inhibitor of the transcription factor STAT5b” (Scientific Reports, 2017)
Changes are numbered by the printed parent chain.

What was measured:
STAT5b-GFP = biological target: T1, STAT5b-GFP (Homo sapiens, UniProt P51692); test: STAT5b Tyr699 phosphorylation in STAT5b-GFP-transfected K562 cells (Western blot); assay type: cell-based
T1 sequence (P51692 1-787): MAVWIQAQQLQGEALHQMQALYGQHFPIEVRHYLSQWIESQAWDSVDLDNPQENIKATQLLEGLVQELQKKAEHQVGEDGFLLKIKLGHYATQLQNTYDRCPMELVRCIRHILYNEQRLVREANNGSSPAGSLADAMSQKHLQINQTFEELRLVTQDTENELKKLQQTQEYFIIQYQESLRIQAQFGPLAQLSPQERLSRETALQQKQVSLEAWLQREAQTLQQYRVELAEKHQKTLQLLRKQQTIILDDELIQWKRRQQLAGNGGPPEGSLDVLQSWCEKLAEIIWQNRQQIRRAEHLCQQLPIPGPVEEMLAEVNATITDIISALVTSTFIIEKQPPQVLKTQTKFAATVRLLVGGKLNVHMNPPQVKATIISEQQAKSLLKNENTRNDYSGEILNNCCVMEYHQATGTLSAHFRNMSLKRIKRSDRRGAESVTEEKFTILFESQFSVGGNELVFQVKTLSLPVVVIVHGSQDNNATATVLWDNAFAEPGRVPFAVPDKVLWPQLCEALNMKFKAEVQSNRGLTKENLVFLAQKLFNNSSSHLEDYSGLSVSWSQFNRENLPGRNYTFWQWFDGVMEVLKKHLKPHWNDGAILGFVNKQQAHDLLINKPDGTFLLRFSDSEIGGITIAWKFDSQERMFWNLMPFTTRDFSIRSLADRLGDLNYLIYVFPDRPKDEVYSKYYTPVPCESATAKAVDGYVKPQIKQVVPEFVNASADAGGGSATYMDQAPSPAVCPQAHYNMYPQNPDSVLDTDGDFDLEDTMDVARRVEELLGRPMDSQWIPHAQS

STAT5b Lys600Ala = biological target: T2, STAT5b Lys600Ala (Homo sapiens, UniProt P51692, K600A); test: Isothermal titration calorimetry, STAT5b Lys600Ala; assay type: binding; conditions: ITC, 25 °C
T2 sequence (P51692 1-787 K600A): T1 sequence (P51692 1-787) with K600A

STAT4 = biological target: T3, STAT4 (Homo sapiens, UniProt Q14765); test: Fluorescence polarization assay, STAT4; assay type: binding
T3 sequence (Q14765 1-748): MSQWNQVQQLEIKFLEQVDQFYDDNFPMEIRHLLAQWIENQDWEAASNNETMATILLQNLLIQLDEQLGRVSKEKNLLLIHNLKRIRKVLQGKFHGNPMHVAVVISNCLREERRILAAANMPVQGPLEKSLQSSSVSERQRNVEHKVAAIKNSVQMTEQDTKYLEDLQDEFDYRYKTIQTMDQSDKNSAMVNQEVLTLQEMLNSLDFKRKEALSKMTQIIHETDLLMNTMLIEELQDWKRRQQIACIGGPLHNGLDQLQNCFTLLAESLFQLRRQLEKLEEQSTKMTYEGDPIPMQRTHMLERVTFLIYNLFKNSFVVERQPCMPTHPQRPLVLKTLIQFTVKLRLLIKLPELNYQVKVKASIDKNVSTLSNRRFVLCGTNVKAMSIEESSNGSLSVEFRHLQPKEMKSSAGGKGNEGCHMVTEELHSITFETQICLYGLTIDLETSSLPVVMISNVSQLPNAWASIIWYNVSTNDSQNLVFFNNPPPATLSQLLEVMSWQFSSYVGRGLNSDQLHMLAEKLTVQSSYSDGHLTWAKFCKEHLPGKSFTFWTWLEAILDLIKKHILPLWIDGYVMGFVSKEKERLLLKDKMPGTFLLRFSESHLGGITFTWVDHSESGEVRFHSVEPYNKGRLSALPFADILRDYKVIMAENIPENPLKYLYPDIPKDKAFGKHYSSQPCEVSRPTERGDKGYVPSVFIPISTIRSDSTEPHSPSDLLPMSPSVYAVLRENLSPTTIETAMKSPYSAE

STAT5a-GFP = test: STAT5a Tyr694 phosphorylation in STAT5a-GFP-transfected K562 cells (Western blot); assay type: cell-based, human; conditions: 4 h, result in words

SMILES: O=C(COc1ccc(C(=O)Nc2ccc(Oc3ccccc3)cc2)cc1)NCc1ccc(OP(=O)(O)O)c(OP(=O)(O)O)c1 [compound 4, 4-((2-(4-((4-phenoxyphenyl)carbamoyl)phenoxy)acetamido)methyl)-1,2-phenylene bis(dihydrogen phosphate)]
- inhibition of STAT5b phosphorylation (STAT5b-GFP): did not show significant activity
- Kd (STAT5b Lys600Ala): 23 ± 10 µM
- IC50 (STAT4): 9.1 ± 0.3 µM
- inhibition of STAT5a phosphorylation (STAT5a-GFP): did not show significant activity
